Results as given in patent publication US20240301023A1 (priority 2020, published 2024).
Where two headings read alike, the source gives them in different places. Square brackets hold non-standard residues; d marks the D form. Ends that are not written are not given here. Peptide text beside a SMILES is read from it. Phe(4-NO2) = N[C@@H](Cc1ccc([N+](=O)[O-])cc1)C(=O)O; Phe(4-Cl) = N[C@@H](Cc1ccc(Cl)cc1)C(=O)O; Phe(4-F) = N[C@@H](Cc1ccc(F)cc1)C(=O)O; NMeR = CN[C@@H](CCCNC(=N)N)C(=O)O; Aoc = NCCCCCCCC(=O)O; Sar = CNCC(=O)O

Key:
[1] = target: Kappa opioid receptor (KOR) (Homo sapiens, UniProt P41145); assay: cell-based; assay type: cell-based
[2] = target: Delta opioid receptor (DOR) (Homo sapiens, UniProt P41143); assay: cell-based; assay type: cell-based
[3] = target: Mu opioid receptor (MOR) (Homo sapiens, UniProt P35372); assay: cell-based; assay type: cell-based
[4] = target: T1, bovine pancreatic trypsin (Bos taurus, UniProt P00760); assay: Stability in bovine trypsin; assay type: in vitro ADME; settings: bovine pancreatic trypsin 2.5 μg/mL, NH4HCO3 buffer pH 8-8.5, 37° C., 100 μM peptide; for half-life: isolated enzyme trypsin; for half-life at 100 µM: bovine pancreatic trypsin solution
T1 construct: from tissue; host or cells: bovine pancreas
T1 sequence (P00760 24-246): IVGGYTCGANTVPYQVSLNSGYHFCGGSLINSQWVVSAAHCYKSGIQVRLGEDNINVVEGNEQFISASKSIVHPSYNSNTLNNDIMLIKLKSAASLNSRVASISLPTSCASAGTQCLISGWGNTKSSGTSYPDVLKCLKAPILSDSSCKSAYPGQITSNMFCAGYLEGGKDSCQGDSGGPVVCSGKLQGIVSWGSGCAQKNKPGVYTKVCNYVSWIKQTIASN
Protocol: The stability of the peptides was analysed in typsin, plasma and water. Stability of linear peptides is generally low due to rapid degradation by endogenous peptidases and proteases. While stability in bodily fluids is important, absolute stability may not be prudent or desirable due to potential build-up in vivo leading to adverse side effects, and/or hazards to the environment and recirculation of exceptionally stable compounds in waterways. Thus, compounds that are extremely stable in either plasma or typsin are not generally considered “drug-like”.
Stability in bovine trypsin was analysed for SEQ ID Nos. 2 to 7 and 11 to 17. Peptides were added to trypsin solution (bovine pancreatic trypsin 2.5 μg/mL in NH4HCO3 buffer, pH approximately 8-8.5, 37° C.) in a water bath with final concentrations of 100 μM peptide. A 50 μL sample was taken immediately and precipitated in 150 μL of cold acetonitrile (9:1 acetonitrile:water) This sample became the baseline, or t=0 min sample. The trypsin peptide mixture was immediately returned to the water bath and subsequent 50 μL samples were taken at 5, 10, 15, 30, 60 and 120 min. At each time point, the 50 μL sample was collected and immediately added to cold acetonitrile (ACN). Each sample was vortexed for 30 sec and then centrifuged at room temperature (RT) (13K rpm, 5 min). 150 μL of the supernatant was taken and directly place in a glass HPLC vial for LCMS analysis.

[5] = Stability in rat plasma; assay type: in vitro ADME; settings: 37° C., 100 μM peptide; for half-life at 100 µM: both sexes, Wistar
Protocol: Stability in plasma was assessed in rat plasma. Plasma was collected in-house from adult mixed-gender Wistar rats, prepared using 2% EDTA as per standard practice. Peptides were added to the rat plasma samples at 37° C. in a water bath with final concentrations of 100 μM (1:9 peptide in water:plasma). The assay was then carried out in the same manner as the assay in bovine trypsin.

[6] = target: KOR (Homo sapiens, UniProt P41145); assay: cell-based; assay type: cell-based; settings: read-out: reduction in maximal response
[7] = read-out: Activity (EC50, nM) MOR
[8] = read-out: Activity (EC50, nM) DOR

Chain of Delta opioid receptor (DOR) (P41143 whole entry): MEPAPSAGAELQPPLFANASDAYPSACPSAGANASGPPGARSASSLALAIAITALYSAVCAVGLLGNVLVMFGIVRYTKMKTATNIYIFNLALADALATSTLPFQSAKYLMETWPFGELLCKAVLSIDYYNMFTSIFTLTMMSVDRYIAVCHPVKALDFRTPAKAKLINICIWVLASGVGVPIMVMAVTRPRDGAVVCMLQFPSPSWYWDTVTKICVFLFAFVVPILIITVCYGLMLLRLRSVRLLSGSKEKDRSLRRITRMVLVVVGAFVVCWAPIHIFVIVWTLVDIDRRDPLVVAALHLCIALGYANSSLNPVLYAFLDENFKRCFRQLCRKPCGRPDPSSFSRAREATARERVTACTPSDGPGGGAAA
Chain of Kappa opioid receptor (KOR) (P41145 whole entry): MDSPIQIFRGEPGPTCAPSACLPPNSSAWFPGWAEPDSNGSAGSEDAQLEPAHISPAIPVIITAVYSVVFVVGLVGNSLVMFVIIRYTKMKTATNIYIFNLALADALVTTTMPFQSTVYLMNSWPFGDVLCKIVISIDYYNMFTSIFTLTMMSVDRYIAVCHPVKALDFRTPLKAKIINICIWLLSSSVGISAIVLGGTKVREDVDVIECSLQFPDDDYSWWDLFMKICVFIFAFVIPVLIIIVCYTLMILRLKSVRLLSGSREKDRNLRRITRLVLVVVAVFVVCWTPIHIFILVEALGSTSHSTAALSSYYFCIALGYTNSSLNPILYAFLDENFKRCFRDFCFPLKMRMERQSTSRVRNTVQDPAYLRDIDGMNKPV
Chain of Mu opioid receptor (MOR) (P35372 whole entry): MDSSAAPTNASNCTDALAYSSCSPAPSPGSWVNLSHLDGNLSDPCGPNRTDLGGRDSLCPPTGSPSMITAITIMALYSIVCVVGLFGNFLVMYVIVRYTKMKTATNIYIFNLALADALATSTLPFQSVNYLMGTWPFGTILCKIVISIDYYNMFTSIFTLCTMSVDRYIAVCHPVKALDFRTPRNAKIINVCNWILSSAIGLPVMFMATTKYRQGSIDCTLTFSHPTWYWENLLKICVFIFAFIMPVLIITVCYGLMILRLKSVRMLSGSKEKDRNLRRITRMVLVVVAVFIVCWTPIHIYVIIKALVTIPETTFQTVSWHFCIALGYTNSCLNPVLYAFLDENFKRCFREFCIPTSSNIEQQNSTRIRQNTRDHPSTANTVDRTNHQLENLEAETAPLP
Chain of KOR (P41145 whole entry): as the sequence (P41145 whole entry) above

## 2-NH2-Phe-Phe-Leu-Gly-Arg-Arg (FFLGRR; also: 2-NH2 (N-terminal amino modification) on Phe, placement unclear) [SEQ ID NO. 36, reference compound]
[1]
  cAMP assay KOR 1 μM: no measurable potency
[2]
  cAMP assay DOR 1 μM: no measurable potency
[3]
  cAMP assay MOR 1 μM: no measurable potency

## CC(C)C[C@H](NC(=O)[C@H](Cc1ccccc1)NC(=O)CN(C)C(=O)[C@@H](N)Cc1ccc(O)cc1)C(=O)N[C@@H](CCCNC(=N)N)C(=O)N[C@H](CCCNC(=N)N)C(N)=O [SEQ ID NO. 3, NH2-Tyr-Sar-Phe-Leu-Arg-DArg-NH2] (H-Y[Sar]FLR[dR]-NH2)
[1]
  cAMP assay KOR 1 μM: 27.24
  cAMP assay KOR 10 μM: 43.58
[2]
  cAMP assay DOR 1 μM: −2.27
  cAMP assay DOR 10 μM: 2.24
[3]
  cAMP assay MOR 1 μM: −0.68
  cAMP assay MOR 10 μM: 2.17
[4]
  Half Life Trypsin: 0.227 h
[5]
  half-life at 100 µM: 1.2 h

## CC(C)C[C@H](NC(=O)[C@H](Cc1ccc([N+](=O)[O-])cc1)NC(=O)CN(C)C(=O)[C@@H](N)Cc1ccc(O)cc1)C(=O)N[C@H](CCCNC(=N)N)C(=O)N[C@@H](CCCNC(=N)N)C(N)=O [SEQ ID NO. 5, NH2-Tyr-Sar-(4-NO2)Phe-Leu-DArg-Arg-NH2] (H-Y[Sar][Phe(4-NO2)]L[dR]R-NH2)
[1]
  cAMP assay KOR 1 μM: 33.44
  cAMP assay KOR 10 μM: 43.14
[2]
  cAMP assay DOR 1 μM: 0.05
  cAMP assay DOR 10 μM: 2.02
[3]
  cAMP assay MOR 1 μM: −0.05
  cAMP assay MOR 10 μM: 4.32
[4]
  Half Life Trypsin: 54.167 h
[5]
  half-life: 0.478 h

## CC(C)C[C@H](NC(=O)[C@H](Cc1ccccc1)NC(=O)CN(C)C(=O)[C@@H](N)Cc1ccc(O)cc1)C(=O)N[C@H](CCCNC(=N)N)C(=O)N[C@@H](CCCNC(=N)N)C(N)=O [SEQ ID NO. 6, NH2-Tyr-Sar-Phe-Leu-DArg-Arg-NH2] (H-Y[Sar]FL[dR]R-NH2)
[1]
  cAMP assay KOR 1 μM: 14.22
  cAMP assay KOR 10 μM: 35.13
[2]
  cAMP assay DOR 1 μM: −0.03
  cAMP assay DOR 10 μM: 2.25
[3]
  cAMP assay MOR 1 μM: 1.04
  cAMP assay MOR 10 μM: 7.84
[4]
  half-life: 21.1 h

## CC(C)C[C@H](NC(=O)[C@H](Cc1ccccc1)NC(=O)CN(C)C(=O)[C@@H](N)Cc1ccc(O)cc1)C(=O)N[C@H](CCCNC(=N)N)C(=O)N[C@H](CCCNC(=N)N)C(N)=O [SEQ ID NO. 7, NH2-Tyr-Sar-Phe-Leu-DArg-DArg-NH2] (H-Y[Sar]FL[dR][dR]-NH2)
[1]
  cAMP assay KOR 1 μM: 18.27
  cAMP assay KOR 10 μM: 36.03
[2]
  cAMP assay DOR 1 μM: −0.68
  cAMP assay DOR 10 μM: 2.53
[3]
  cAMP assay MOR 1 μM: 0.13
  cAMP assay MOR 10 μM: 4.19
[4]
  half-life: 9.78 h

## CC(C)C[C@H](NC(=O)[C@H](Cc1ccc(Cl)cc1)NC(=O)CN(C)C(=O)[C@@H](N)Cc1ccc(O)cc1)C(=O)N[C@@H](CCCNC(=N)N)C(=O)N[C@H](CCCNC(=N)N)C(N)=O [SEQ ID NO. 11, NH2-Tyr-Sar-(4-Cl)Phe-Leu-Arg-DArg-NH2] (H-Y[Sar][Phe(4-Cl)]LR[dR]-NH2)
[1]
  cAMP assay KOR 1 μM: 27.7
  cAMP assay KOR 10 μM: 33.99
[2]
  cAMP assay DOR 1 μM: −1.18
  cAMP assay DOR 10 μM: 4.27
[3]
  cAMP assay MOR 1 μM: −0.86
  cAMP assay MOR 10 μM: 1.37
[4]
  half-life at 100 µM: 0.257 h

## CC(C)C[C@H](NC(=O)[C@H](Cc1ccc(F)cc1)NC(=O)CN(C)C(=O)[C@@H](N)Cc1ccc(O)cc1)C(=O)N[C@@H](CCCNC(=N)N)C(=O)N[C@H](CCCNC(=N)N)C(N)=O [SEQ ID NO. 12, NH2-Tyr-Sar-(4-F)Phe-Leu-Arg-DArg-NH2] (H-Y[Sar][Phe(4-F)]LR[dR]-NH2)
[1]; read-out: Activity (EC50, nM) KOR
  EC50: 6.7 nM
[3]; [7]
  EC50: 3450 nM
[4]
  half-life at 100 µM: 0.228 h
[5]
  half-life at 100 µM: 0.532 h

## CC(C)C[C@H](NC(=O)[C@H](Cc1ccc(Cl)cc1)NC(=O)CN(C)C(=O)[C@@H](N)Cc1ccc(O)cc1)C(=O)N(C)[C@@H](CCCNC(=N)N)C(=O)N[C@H](CCCNC(=N)N)C(N)=O [SEQ ID NO. 13, NH2-Tyr-Sar-(4-Cl)Phe-Leu-NMA-DArg-NH2] (H-Y[Sar][Phe(4-Cl)]L[NMeR][dR]-NH2)
[2]
  EC50: > 10000 nM
[3]
  EC50: > 10000 nM
[4]
  half-life at 100 µM: 4.6 h
[5]
  half-life at 100 µM: 3.99 h

## CC(C)C[C@H](NC(=O)[C@H](Cc1ccc(F)cc1)NC(=O)CN(C)C(=O)[C@@H](N)Cc1ccc(O)cc1)C(=O)N(C)[C@@H](CCCNC(=N)N)C(=O)N[C@H](CCCNC(=N)N)C(N)=O [SEQ ID NO. 14, NH2-Tyr-Sar-(4-F)Phe-Leu-NMA-DArg-NH2] (H-Y[Sar][Phe(4-F)]L[NMeR][dR]-NH2)
[2]; [8]
  EC50: 1660 nM
[3]; [7]
  EC50: 4000 nM
[4]
  half-life at 100 µM: 27.1 h
[5]
  half-life at 100 µM: 5.4 h

## CC(C)C[C@H](NC(=O)[C@H](Cc1ccc([N+](=O)[O-])cc1)NC(=O)CN(C)C(=O)[C@@H](N)Cc1ccc(O)cc1)C(=O)N(C)[C@@H](CCCNC(=N)N)C(=O)N[C@H](CCCNC(=N)N)C(N)=O [SEQ ID NO. 15, NH2-Tyr-Sar-(4-NO2)Phe-Leu-NMA-DArg-NH2] (H-Y[Sar][Phe(4-NO2)]L[NMeR][dR]-NH2)
[2]; [8]
  EC50: 1320 nM

## CC(C)C[C@H](NC(=O)[C@H](Cc1ccc(Cl)cc1)NC(=O)CN(C)C(=O)[C@@H](N)Cc1ccc(O)cc1)C(=O)N[C@@H](CCCCN)C(=O)N[C@H](CCCNC(=N)N)C(N)=O [SEQ ID NO. 16, NH2-Tyr-Sar-(4-Cl)Phe-Leu-Lys-DArg-NH2] (H-Y[Sar][Phe(4-Cl)]LK[dR]-NH2)
[4]
  Half Life Trypsin: 1.16 h
[5]
  half-life at 100 µM: 1.17 h

## CC(C)C[C@H](NC(=O)[C@H](Cc1ccc(Cl)cc1)NC(=O)CN(C)C(=O)[C@@H](N)Cc1ccc(O)cc1)C(=O)N[C@@H](CCCNC(=N)N)C(=O)N(C)[C@@H](CCCNC(=N)N)C(N)=O [SEQ ID NO. 17, NH2-Tyr-Sar-(4-Cl)Phe-Leu-Arg-NMA-NH2] (H-Y[Sar][Phe(4-Cl)]LR[NMeR]-NH2)
[4]
  half-life at 100 µM: > 16.7 h
[5]
  half-life at 100 µM: 2.9 h

## CC[C@H](C)[C@H](NC(=O)[C@@H](CCCNC(=N)N)NC(=O)[C@H](CCCNC(=N)N)NC(=O)[C@H](CC(C)C)NC(=O)[C@H](Cc1ccc(Cl)cc1)NC(=O)CN(C)C(=O)[C@@H](N)Cc1ccc(O)cc1)C(=O)N[C@@H](CCCNC(=N)N)C(N)=O [SEQ ID NO. 20, NH2-Tyr-Sar-(4-Cl)Phe-Leu-Arg-DArg-Ile-Arg-NH2]
[1]
  cAMP activity in the presence of naloxone, KOR cells: significantly inhibited
[2]
  EC50: 3580 nM
[3]
  EC50: > 10000 nM
[6]
  reduction in maximal response after pre-treatment: ~50%

## CC[C@H](C)[C@H](NC(=O)[C@@H](CCCNC(=N)N)NC(=O)[C@H](CCCNC(=N)N)NC(=O)[C@H](CC(C)C)NC(=O)[C@H](Cc1ccc(Cl)cc1)NC(=O)CN(C)C(=O)[C@@H](N)Cc1ccc(O)cc1)C(=O)N[C@H](CCCNC(=N)N)C(N)=O [SEQ ID NO. 25, NH2-Tyr-Sar-(4-Cl)Phe-Leu-Arg-DArg-Ile-DArg-NH2]
[2]
  EC50: > 10000 nM
[3]
  EC50: 1610 nM

## CC(C)C[C@H](NC(=O)[C@H](Cc1ccc(Cl)cc1)NC(=O)CN(C)C(=O)[C@@H](N)Cc1ccc(O)cc1)C(=O)N[C@@H](CCCNC(=N)N)C(=O)N[C@H](CCCNC(=N)N)C(=O)NCCCCCCCC(=O)O [SEQ ID NO. 28, NH2-Tyr-Sar-(4-Cl)Phe-Leu-Arg-DArg-C7H14-COOH] (H-Y[Sar][Phe(4-Cl)]LR[dR][Aoc]-OH)
[2]
  EC50: > 10000 nM
[3]
  EC50: > 10000 nM
